Experimental data reported in ChEMBL document CHEMBL2417454, “Oxazolopyridines and thiazolopyridines as monoamine oxidase B inhibitors for the treatment of Parkinson's disease” (Bioorg Med Chem, 2013).

Legend:
[1] = target: T1, Amine oxidase [flavin-containing] B (Homo sapiens, UniProt P27338); assay: Inhibition of human recombinant MAO-B using benzylamine hydrochloride as substrate assessed as H2O2 synthesis at 10 uM after 1 hr by fluorescence assay; details: read-out: INH
T1 sequence (P27338 whole entry): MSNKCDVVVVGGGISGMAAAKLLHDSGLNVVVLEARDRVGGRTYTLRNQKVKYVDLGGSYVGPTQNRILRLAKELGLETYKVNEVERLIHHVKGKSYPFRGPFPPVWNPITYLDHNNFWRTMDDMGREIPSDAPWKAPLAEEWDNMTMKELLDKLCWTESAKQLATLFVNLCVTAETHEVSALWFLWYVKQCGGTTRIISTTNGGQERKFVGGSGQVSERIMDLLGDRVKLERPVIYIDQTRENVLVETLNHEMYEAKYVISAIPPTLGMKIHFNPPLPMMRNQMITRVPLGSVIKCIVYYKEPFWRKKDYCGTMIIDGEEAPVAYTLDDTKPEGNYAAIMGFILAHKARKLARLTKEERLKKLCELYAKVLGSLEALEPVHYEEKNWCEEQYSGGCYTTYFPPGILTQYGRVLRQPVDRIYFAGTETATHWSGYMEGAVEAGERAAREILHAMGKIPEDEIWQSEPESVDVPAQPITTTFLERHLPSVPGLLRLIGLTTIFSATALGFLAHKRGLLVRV

[2] = target: T1, Amine oxidase [flavin-containing] B; assay: Inhibition of human recombinant MAO-B using benzylamine hydrochloride as substrate assessed as H2O2 synthesis after 1 hr by fluorescence assay

Compound | inhibition at 10 µM [1] [%] | IC50 [2] [µM]
CNc1ccc2nc(-c3ccccc3)oc2n1 | 19 | –
c1ccc(-c2nc3ccc(NC4CCCCC4)nc3o2)cc1 | 79.1 | 2.54
c1ccc(CNc2ccc3nc(-c4ccccc4)oc3n2)cc1 | 4.8 | –
CN(Cc1ccccc1)c1ccc2nc(-c3ccccc3)oc2n1 | 3.7 | –
c1ccc(-c2nc3ccc(N4CCCCCC4)nc3o2)cc1 | 57.9 | –
c1ccc(-c2nc3ccc(N4CCCCC4)nc3o2)cc1 | 86.8 | 1.37
Fc1ccccc1-c1nc2ccc(N3CCCCC3)nc2o1 | 94.9 | 0.665
Fc1cccc(-c2nc3ccc(N4CCCCC4)nc3o2)c1 | 89.7 | –
Fc1ccc(-c2nc3ccc(N4CCCCC4)nc3o2)cc1 | 93.4 | 0.27
Clc1ccccc1-c1nc2ccc(N3CCCCC3)nc2o1 | 96.3 | 0.267
Clc1cccc(-c2nc3ccc(N4CCCCC4)nc3o2)c1 | 91.7 | 0.335
Clc1ccc(-c2nc3ccc(N4CCCCC4)nc3o2)cc1 | 69.8 | 0.89
c1ccc(-c2nc3ccc(N4CCCCC4)nc3s2)cc1 | 95.5 | 0.356
Fc1ccc(-c2nc3ccc(N4CCCCC4)nc3s2)cc1 | 92.7 | 0.0265
Clc1ccccc1-c1nc2ccc(N3CCCCC3)nc2s1 | 95.1 | 0.171
Clc1ccc(-c2nc3ccc(N4CCCCC4)nc3s2)cc1 | 84.2 | 0.358
